The source of these data is patent publication US20140296479A1, “D-APTIDE AND RETRO-INVERSO APTIDE WITH MAINTAINED TARGET AFFINITY AND IMPROVED STABILITY” (GWANGJU INSTITUTE OF SCIENCE AND TECHNOLOGY, priority 2011, published 2014).

Where a SMILES comes first, the peptide text is derived from it. Where no end group is shown, it is not given here. [ ]: non-standard residue; d: D form.

By Kd is commonly meant the constant that tells how readily two partners part at equilibrium. By koff is commonly meant the rate constant with which the complex falls apart. Higher therefore signals fast dissociation.

For data set [1], the target named is T1, fibronectin EDB (Homo sapiens, UniProt P02751).
T1 construct: Biotin-EDB of 2000 RU was immobilized on streptavidin SA chip
As to the kind of experiment: BIAcore X (SPR) affinity for fibronectin EDB. Format: binding. The settings on record: biotin-EDB on SA chip; for Kd / koff (dissociation rate constant): PBS pH 7.4; for kon: PBS pH 7.4, read-out: ka. Here is the method: (§1) To investigate whether the activity is maintained where Aptamer-Like Peptides specifically binding to fibronectin EDB, i.e., L-Aptide1EDB are converted into D- and Retro inverso (RI)-form, their affinity to a target was measured. Firstly, 3 peptides, L-Aptide1EDB ([…], all L-amino acids, SEQ ID NO:21), D-Aptide1EDB ([…], all D-amino acids, SEQ ID NO:21) and RI-Aptide1EDB ([…], all D-amino acids), were synthesized by Anigen Inc. (Korea). Their affinity for a target was determined using BIAcore X (Biacore AB, Uppsala, Sweden). Biotin-EDB of 2000 RU was immobilized on streptavidin SA chip (Biacore). A PBS (pH 7.4) was used as a running buffer, a flow rate was 30 μl/min, and the affinity was determined with BIAevaluation software (Biacore AB, Uppsala, Sweden) after measuring kinetics of various concentrations.
(In general: SPR reads the build-up and loss of mass on a sensor chip optically.)

The target in another data set is T2, α-chymotrypsin (Bos taurus, UniProt P00766).
T2 construct: purchased Sigma
As to the kind of experiment: Degradation of Aptides by protease, SDS-PAGE. It is filed as in vitro ADME. The settings on record: 10 unit α-chymotrypsin, 100 μg peptide, FIG. 3. Here is the method:
(§2) Degradation levels of the L-Aptide1EDB and D-Aptide1EDB were measured using proteases, α-chymotrypsin and trypsin (Sigma). The proteases of 10 unit were added to 100 μg peptides, followed by the reaction for 30, 60, 120 and 720 min, and the reaction was blocked by adding SDS sample buffer (Invitrogen). Subsequently, results for the peptide degradation were obtained from SDS-PAGE.

The subject of a further data set is trypsin. The experiment in a line: Degradation of Aptides by protease, SDS-PAGE. Format: in vitro ADME. The settings on record: 10 unit trypsin, 100 μg peptide, FIG. 3. How it is done:
as §2

The target in a further data set is T3, VEGF (Homo sapiens, UniProt P15692).
T3 construct: purchased R&D Systems
T3 sequence (P15692 27-191 isoform P15692-4): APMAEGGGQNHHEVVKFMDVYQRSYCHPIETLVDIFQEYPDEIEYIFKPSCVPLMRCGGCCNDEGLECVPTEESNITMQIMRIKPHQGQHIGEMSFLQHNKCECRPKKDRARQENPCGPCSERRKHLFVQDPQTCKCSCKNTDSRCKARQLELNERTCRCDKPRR
As to the kind of experiment: Inhibition of VEGF activity (HUVEC proliferation assay). The settings on record: VEGF165, 72 hours. It is filed as cell-based. How it is done:
HUVECs (Human Umbilical Vein Endothelial Cells, ATCC) were starved in M199 medium (Gibco) supplemented with 1% FBS, and then they were attached to a 96-well plate at 5000 cell/well. After 12 hours, the cells were treated with medium containing both various concentrations of L-Aptide1VEGF and D-Aptide1VEGF, and VEGF165 (R&D Systems). After 72 hours, the growth inhibition rate of HUVECs by the L-AptideVEGF and D-AptideVEGF was determined using EZ-cytox cell viability assay kit (Daeil Labservice, Korea).

The target in a further data set is T4, VEGF121 (Homo sapiens, UniProt P15692).
T4 sequence (P15692 27-147 isoform P15692-9): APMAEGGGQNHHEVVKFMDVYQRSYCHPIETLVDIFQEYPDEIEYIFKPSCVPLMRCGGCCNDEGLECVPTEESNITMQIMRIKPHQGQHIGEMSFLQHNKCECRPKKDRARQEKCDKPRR
The experiment in a line: BIAcore X (SPR) affinity for VEGF. The settings on record: VEGF121 on CM5 chip; for kd: PBS pH 7.4; for kon: PBS pH 7.4, read-out: ka. It is filed as binding. Here is the method: To investigate whether the activity is maintained where Aptamer-Like Peptides specifically binding to VEGF (Vascular endothelial growth factor), i.e., L-Aptide1VEGF are converted into D- and Retro inverso (RI)-form, their affinity to a target was measured. Firstly, 3 peptides, L-Aptide1VEGF ([…], all L-amino acids, SEQ ID NO:23), D-Aptide1VEGF ([…], all D-amino acids, SEQ ID NO:23) and RI-Aptide1VEGF ([…], all D-amino acids), were synthesized by Anigen Inc. (Korea). Their affinity for a target was determined using BIAcore X (Biacore AB, Uppsala, Sweden). VEGF121 of 3000 RU was immobilized on CM5 chip (Biacore). A PBS (pH 7.4) was used as a running buffer, a flow rate was 30 μl/min, and the affinity was determined with BIAevaluation software (Biacore AB, Uppsala, Sweden) after measuring kinetics of various concentrations.

Data set [2] deals with T5, fibronectin EDB (UniProt P02751 1266-1356, limits assumed, biotin (site not stated)).
T5 construct: domain: EDB; Biotin-EDB, 2000 RU, immobilised on a streptavidin SA chip; also called Biotin-EDB; fibronectin extra domain B (ED-B)
The experiment in a line: SPR, BIAcore X; biotin-EDB on SA chip, peptide as analyte. Here is the method:
as §1, with “(Biacore).” for “(Biacore). A PBS (pH 7.4) was used as a running buffer, a flow rate was 30 μl/min, and the affinity was determined with BIAevaluation software (Biacore AB, Uppsala, Sweden) after measuring kinetics of various concentrations.”

T5 sequence (P02751 1266-1356 limits assumed): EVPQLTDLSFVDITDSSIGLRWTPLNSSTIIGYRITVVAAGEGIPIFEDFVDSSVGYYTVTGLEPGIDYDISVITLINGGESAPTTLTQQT

For `CC[C@@H](C)[C@@H](NC(=O)CNC(=O)[C@@H](CCCCN)NC(=O)[C@@H](Cc1c[nH]c2ccccc12)NC(=O)[C@H](NC(=O)[C@@H](Cc1c[nH]c2ccccc12)NC(=O)[C@@H](CCCCN)NC(=O)CNC(=O)[C@@H](CC(N)=O)NC(=O)[C@@H](CCC(=O)O)NC(=O)[C@@H](Cc1c[nH]c2ccccc12)NC(=O)[C@H](NC(=O)[C@@H](Cc1c[nH]c2ccccc12)NC(=O)[C@@H](CO)NC(=O)CNC(=O)[C@H](NC(=O)[C@@H](C)NC(=O)[C@@H](CO)NC(=O)[C@@H](CO)NC(=O)[C@@H](CS)NC(=O)[C@H](N)Cc1c[nH]cn1)C(C)C)[C@H](C)O)[C@H](C)O)C(=O)N[C@@H](C(=O)N[C@H](CCCNC(=N)N)C(=O)N[C@H](CC(C)C)C(=O)N[C@H](CCC(=O)O)C(=O)N[C@H](CCC(N)=O)C(=O)O)[C@H](C)CC` [D-Aptide1EDB] (H-[dH][dC][dS][dS][dA][dV]G[dS][dW][dT][dW][dE][dN]G[dK][dW][dT][dW][dK]G[dI][dI][dR][dL][dE][dQ]-OH; N-terminus and C-terminus assumed), at fibronectin EDB [1], the Kd came out at 58 nM, the “koff (dissociation rate constant)” value was 0.0009 s⁻¹ and the kon was determined as 15000 M⁻¹ s⁻¹. At α-chymotrypsin, the “time to degradation by protease” value was more than 360 min. Further, in the data set on trypsin, the “time to degradation by protease” value is on record as more than 360 min.

In the case of `C[C@H](O)[C@@H](NC(=O)[C@@H](Cc1c[nH]c2ccccc12)NC(=O)[C@@H](CCCCN)NC(=O)CNC(=O)[C@@H](CC(N)=O)NC(=O)[C@@H](CCC(=O)O)NC(=O)[C@@H](Cc1c[nH]c2ccccc12)NC(=O)[C@H](NC(=O)[C@@H](Cc1c[nH]c2ccccc12)NC(=O)[C@@H](CO)NC(=O)CNC(=O)[C@@H](CCC(N)=O)NC(=O)[C@@H](Cc1ccccc1)NC(=O)[C@@H](Cc1ccccc1)NC(=O)[C@@H](CC(N)=O)NC(=O)[C@@H](C)NC(=O)[C@H](N)Cc1c[nH]cn1)[C@H](C)O)C(=O)N[C@H](Cc1c[nH]c2ccccc12)C(=O)N[C@H](CCCCN)C(=O)NCC(=O)N[C@H](Cc1c[nH]c2ccccc12)C(=O)N[C@H](CCCCN)C(=O)N[C@H](Cc1ccc(O)cc1)C(=O)N[C@H](CC(N)=O)C(=O)N[C@H](CCC(N)=O)C(=O)N[C@H](CO)C(=O)O` [D-Aptide1VEGF] (H-[dH][dA][dN][dF][dF][dQ]G[dS][dW][dT][dW][dE][dN]G[dK][dW][dT][dW][dK]G[dW][dK][dY][dN][dQ][dS]-OH; N-terminus and C-terminus assumed), the “inhibition of VEGF activity” value on VEGF (at 10 μM, D-form versus L-form) was “more inhibited VEGF activity than L-form”. Besides, on VEGF (at 20 μM), the “inhibition of VEGF activity” value is “completely inhibited VEGF activity”. Also, on VEGF121, the kd worked out at 0.0066 s⁻¹ and the kon amounted to 130000 M⁻¹ s⁻¹. The dissociation constant (Kd) at VEGF121 (PBS pH 7.4, read-out: Kd) turned out to be 50 nM.

For `CC[C@H](C)[C@H](NC(=O)CNC(=O)[C@H](CCCCN)NC(=O)[C@H](Cc1c[nH]c2ccccc12)NC(=O)[C@@H](NC(=O)[C@H](Cc1c[nH]c2ccccc12)NC(=O)[C@H](CCCCN)NC(=O)CNC(=O)[C@H](CC(N)=O)NC(=O)[C@H](CCC(=O)O)NC(=O)[C@H](Cc1c[nH]c2ccccc12)NC(=O)[C@@H](NC(=O)[C@H](Cc1c[nH]c2ccccc12)NC(=O)[C@H](CO)NC(=O)CNC(=O)[C@@H](NC(=O)[C@H](C)NC(=O)[C@H](CO)NC(=O)[C@H](CO)NC(=O)[C@H](CS)NC(=O)[C@@H](N)Cc1c[nH]cn1)C(C)C)[C@@H](C)O)[C@@H](C)O)C(=O)N[C@H](C(=O)N[C@@H](CCCNC(=N)N)C(=O)N[C@@H](CC(C)C)C(=O)N[C@@H](CCC(=O)O)C(=O)N[C@@H](CCC(N)=O)C(=O)O)[C@@H](C)CC` [L-Aptide1EDB] (H-HCSSAVGSWTWENGKWTWKGIIRLEQ-OH; N-terminus and C-terminus assumed), on fibronectin EDB [1], the dissociation constant Kd was found to be 65 nM, the “koff (dissociation rate constant)” value stood at 0.00095 s⁻¹ and the kon came to 10000 M⁻¹ s⁻¹. Moreover, the “time to degradation by protease” value on α-chymotrypsin is reported as not above 30 min. For the same molecule, in the data set on trypsin, the “time to degradation by protease” value is recorded as not above 30 min.

On to `C[C@H](NC(=O)[C@@H](N)Cc1c[nH]cn1)C(=O)N[C@@H](CC(N)=O)C(=O)N[C@@H](Cc1ccccc1)C(=O)N[C@@H](Cc1ccccc1)C(=O)N[C@@H](CCC(N)=O)C(=O)NCC(=O)N[C@@H](CO)C(=O)N[C@@H](Cc1c[nH]c2ccccc12)C(=O)N[C@H](C(=O)N[C@@H](Cc1c[nH]c2ccccc12)C(=O)N[C@@H](CCC(=O)O)C(=O)N[C@@H](CC(N)=O)C(=O)NCC(=O)N[C@@H](CCCCN)C(=O)N[C@@H](Cc1c[nH]c2ccccc12)C(=O)N[C@H](C(=O)N[C@@H](Cc1c[nH]c2ccccc12)C(=O)N[C@@H](CCCCN)C(=O)NCC(=O)N[C@@H](Cc1c[nH]c2ccccc12)C(=O)N[C@@H](CCCCN)C(=O)N[C@@H](Cc1ccc(O)cc1)C(=O)N[C@@H](CC(N)=O)C(=O)N[C@@H](CCC(N)=O)C(=O)N[C@@H](CO)C(=O)O)[C@@H](C)O)[C@@H](C)O` [L-Aptide1VEGF] (H-HANFFQGSWTWENGKWTWKGWKYNQS-OH; N-terminus and C-terminus assumed), for which the “inhibition of VEGF activity” value at VEGF (at 20 μM) was “completely inhibited VEGF activity”. For the same molecule, at VEGF121, the kd worked out at 0.01 s⁻¹ and the kon stood at 350000 M⁻¹ s⁻¹.

B1: D-Aptide1EDB (designed binder)
peptide: [dH][dC][dS][dS][dA][dV]G[dS][dW][dT][dW][dE][dN]G[dK][dW][dT][dW][dK]G[dI][dI][dR][dL][dE][dQ]
B1 came in with a koff with fibronectin EDB [2] of 0.0009 s⁻¹.

B2: RI-Aptide1EDB (designed binder)
peptide: [dQ][dE][dL][dR][dI][dI]G[dK][dW][dT][dW][dK]G[dN][dE][dW][dT][dW][dS]G[dV][dA][dS][dS][dC][dH]
Molecule B2 displayed a koff with fibronectin EDB [2] of 0.0011 s⁻¹.

B3: L-Aptide1EDB (designed binder)
peptide: HCSSAVGSWTWENGKWTWKGIIRLEQ
notes: Synthetic 26-mer, all L-amino acids; also called Aptide1EDB (L-form)
Consider B3, for which the dissociation rate constant (koff) with fibronectin EDB [2] worked out at 0.00095 s⁻¹.
